Data: patent US20140357512A1, “HISTONE DEACETYLASE (HDAC) BIOMARKERS IN MULTIPLE MYELOMA” (priority 2013, published 2014)

Test system: human myeloma cell line MM.1S
Assay: SILAC acetylated-lysine peptide profiling, HDAC inhibitor vs DMSO (light/heavy ratio)
Type: cell-based
From the text: An embodiment of the invention comprises utilizing the SILAC method in order to quantitate changes in protein expression between two or more populations of cells. The SILAC method is a technique based on mass spectrometry that detects differences in protein abundance among samples using non-radioactive isotopic labeling. The SILAC method is known in the art, and described in detail in Ong et al., “Stable Isotope Labeling by Amino Acids in Cell Culture, SILAC, as a Simple and Accurate Approach to Expression Proteomics”, Molecular & Cellular Proteomics, vol. 1, pp. 376-386 (2002), which is incorporated herein by reference in its entirety.
Briefly, the SILAC method involves growing two populations of cells in cell culture. The first population of cells is grown in growth media containing normal amino acids (“normal media”). The second population of cells is grown in media lacking a standard essential amino acid (such as lysine), but is then supplemented with a non-radioactive, isotopically labeled form of that essential amino acid (such as lysine labeled with ^13C atoms, rather than normal ^12C atoms), which is called “heavy media”. When the two populations of cells are each growing in the medium, they incorporate the amino acids into all of their proteins. The growth of cells maintained in the heavy media is no different from that in normal media. All peptides containing the heavy amino acids are heavier than their normal counterparts. The cells from each of the two populations of cells are lysed. The lysates from each of the two cell populations are then combined. The combined cell lysates are then analyzed by mass spectrometry. Pairs of chemically identical peptides of different stable isotope composition can be differentiated in a mass spectrometer due to their difference in mass. The ratio of peak intensities in the mass spectrum for such peptide pairs reflects the abundance ratio for the two proteins.
This example describes SILAC studies that were performed to compare the effects of three different HDAC inhibitors (Compound A, Compound B, and tubastatin A) to a control on a human multiple myeloma cell line. The HDAC inhibitors were also compared amongst themselves to determine differences in their effects.
A human myeloma cell line MM.1S was grown using either ^12C (light) or ^13C (heavy) lysine containing culture medium. The “heavy” cells were treated with DMSO as the control, and the “light” cells were treated with a single HDAC inhibitor at 37° C. for 6 hours. The heavy and light cells were lysed, and the lysates were mixed in 1:1 ratio and digested with the protease trypsin. The acetylated lysine containing peptides (due to the action of the HDAC inhibitor) in the digested peptide pool were captured by a non-specific anti-acetylated lysine antibody cocktail (the antibodies identify both light and heavy acetylated peptides), and subjected to mass spectrometry analysis in order to identify thousands of individual peptides.
Thousands of peptides were identified in pairs (^12C and ^13C) due to their known mass differences. The amino acid sequence and quantitative ratio (Light/Heavy) of a given peptide in two differentially treated cell lysates were then determined and annotated with their possible protein (gene) sources.
As stated above, three HDAC inhibitors (Compound A, Compound B, and Tubastatin A) were used. Thus, the SILAC method was performed three times, with a different HDAC inhibitor compared to a control each time. Accordingly, there are three pairs of quantitative data in the table below, i.e., Compound A:DMSO, Compound B:DMSO, and Tubastatin A:DMSO. A cut-off of 1.30 fold of change (increase or decrease) was then used to determine “changed” or “+” in the table, and any peptides with a fold of change less than 1.3 fold were determined to be “unchanged” or “0” in the table. Those peptides that were not identified were marked as “NA” in the table. […]

CN1CCc2c(c3ccccc3n2Cc2ccc(C(=O)NO)cc2)C1 [Tub A]
L/H ratio of acetylated peptide MYFDK(ac)YVLKPATEGK (SEQ ID NO: 23) (ATAD3A [491], log 2 scale, drug vs DMSO): 0.62 | L/H ratio of acetylated peptide IVEYEK(ac)EMEK (SEQ ID NO: 24) (ATP5H [117], log 2 scale, drug vs DMSO): 0.63 | L/H ratio of acetylated peptide YYNK(ac)YINVK (SEQ ID NO: 12) (ATP5J2 [54], log 2 scale, drug vs DMSO): 0.66 | light to heavy ratio (L/H ratio) of acetylated peptide QNK(ac)LEQVEK (SEQ ID NO: 271) (ATP synthase subunit O mitochondrial [54], ATP50, drug:DMSO): 0.45 log 2 | light to heavy ratio (L/H ratio) of acetylated peptide STVAQLVK(ac)R (SEQ ID NO: 552) (ATP synthase subunit alpha mitochondrial [261], gene ATP5A1, inhibitor:DMSO): 0.00 log 2 | light to heavy ratio (L/H ratio) of acetylated peptide ISEQSDAK(ac)LK (SEQ ID NO: 600) (ATP synthase subunit alpha mitochondrial [539], gene ATP5A1, inhibitor:DMSO): 0.00 log 2 | light to heavy ratio (L/H ratio) of acetylated peptide HVVQSISTQQEK(ac)ETIAK (SEQ ID NO: 307) (ATP synthase subunit b mitochondrial [233], ATP5F1, drug:DMSO): 0.62 log 2 | light to heavy ratio (L/H ratio) of acetylated peptide IVNSAQTGSFK(ac)QLTVK (SEQ ID NO: 279) (ATP synthase subunit g mitochondrial [66], ATP5L, drug:DMSO): 0.77 log 2 | light to heavy ratio (L/H ratio) of acetylated peptide ELDPIQK(ac)LFVDK (SEQ ID NO: 365) (ATP synthase-coupling factor 6 mitochondrial [41], ATP5J, drug:DMSO): 0.00 log 2 | light to heavy ratio (L/H ratio) of acetylated peptide FEDPK(ac)FEVIEKPQA (SEQ ID NO: 325) (ATP synthase-coupling factor 6 mitochondrial [99], ATP5J, drug:DMSO): 0.00 log 2 | light to heavy ratio (L/H ratio) of acetylated peptide, log 2 scale (AVEEK(ac)IEWLESHQDADIEDFK (SEQ ID NO: 172), 78 kDa glucose-regulated protein [601], HSPA5): −0.54 | light to heavy ratio (L/H ratio) of acetylated peptide, log 2 scale (AVIWPQYVK(ac)DR (SEQ ID NO: 156), cDNA FLJ59630 highly similar to Growth hormone-inducible transmembrane protein [124], GHITM): 0.47 | light to heavy ratio (L/H ratio) of acetylated peptide, log 2 scale (AVK(ac)HAEELER (SEQ ID NO: 225), Isoform 2 of Signal recognition particle 68 kDa protein [164], SRP68): −1.00 | light to heavy ratio (L/H ratio) of acetylated peptide, log 2 scale (AYGGSMCAK(ac)CVR (SEQ ID NO: 204), 60S ribosomal protein L34 [85], RPL34): 0.40 | L/H ratio of acetylated peptide (AYHLQK(ac)STCGK (SEQ ID NO: 443), 60S ribosomal protein L37 [31], RPL37): 0.00 log 2 | light to heavy ratio (L/H ratio) of acetylated peptide AFAK(ac)ELFLGK (SEQ ID NO: 627) (Acyl-CoA dehydrogenase family member 9 mitochondrial [41], gene ACAD9, inhibitor:DMSO): 0.00 log 2 | light to heavy ratio (L/H ratio) of acetylated peptide YSAK(ac)DYFFK (SEQ ID NO: 319) (Alpha-soluble NSF attachment protein [203], NAPA, drug:DMSO): 0.44 log 2 | light to heavy ratio (L/H ratio) of acetylated peptide PAQGAK(ac)YR (SEQ ID NO: 305) (Annexin A6 [9], ANXA6, drug:DMSO): 0.39 log 2 | light to heavy ratio (L/H ratio) of acetylated peptide TKYEK(ac)SLYSMIK (SEQ ID NO: 270) (Annexin A6 [299], ANXA6, drug:DMSO): 0.42 log 2 | light to heavy ratio (L/H ratio) of acetylated peptide NDTSGEYK(ac)K (SEQ ID NO: 285) (Annexin A6 [314], ANXA6, drug:DMSO): 0.70 log 2 | light to heavy ratio (L/H ratio) of acetylated peptide AINEAYK(ac)EDYHK (SEQ ID NO: 282) (Annexin A6 [478], ANXA6, drug:DMSO): 0.53 log 2 | light to heavy ratio (L/H ratio) of acetylated peptide NKPLFFADK(ac)LYK (SEQ ID NO: 298) (Annexin A6 [607], ANXA6, drug:DMSO): 0.51 log 2 | light to heavy ratio (L/H ratio) of acetylated peptide GAGTDEK(ac)TLTR (SEQ ID NO: 621) (Annexin A6 [620], gene ANXA6, inhibitor:DMSO): 0.00 log 2 | light to heavy ratio (L/H ratio), log 2 scale, acetylated peptide EFIEK(ac)YDK (SEQ ID NO: 779) (Annexin A6 [644], gene ANXA6, drug:DMSO): 0.00 | light to heavy ratio (L/H ratio) of acetylated peptide DDNGK(ac)PYVLPSVR (SEQ ID NO: 579) (Aspartate aminotransferase mitochondrial [73], gene GOT2, inhibitor:DMSO): 0.00 log 2 | light to heavy ratio (L/H ratio) of acetylated peptide ELK(ac)EIQYGIR (SEQ ID NO: 540) (Branched-chain-amino-acid aminotransferase [337], gene BCAT2, inhibitor:DMSO): 0.00 log 2 | light to heavy ratio (L/H ratio), log 2 scale, acetylated peptide ESCSK(ac)HASGTSFHLPQPSFR (SEQ ID NO: 780) (Bromodomain and PHD finger-containing protein 3 [105], gene BRPF3, drug:DMSO): 0.00 | L/H ratio of acetylated peptide FYGDEEK(ac)DKGLQTSQDAR (SEQ ID NO: 25) (CALR [62], log 2 scale, drug vs DMSO): −0.97 | light to heavy ratio (L/H ratio) of acetylated peptide AGLQVYNK(ac)CWK (SEQ ID NO: 260) (CD59 glycoprotein [63], CD59, drug:DMSO): −0.45 log 2 | L/H ratio of acetylated peptide ALEHFTDLYDIK(ac)R (SEQ ID NO: 26) (CLTC [637], log 2 scale, drug vs DMSO): −0.62 | L/H ratio of acetylated peptide FK(ac)ESFAEMNR (SEQ ID NO: 1) (COX4I1 [87], log 2 scale, drug vs DMSO): 0.52 | L/H ratio of acetylated peptide […](ac)QLCTIPR (SEQ ID NO: 27) (CREBBP [1216], log 2 scale, drug vs DMSO): 0.60 | L/H ratio of acetylated peptide TNK(ac)NK(ac)SSISR (SEQ ID NO: 13) (CREBBP [1595:1597], log 2 scale, drug vs DMSO): 0.64 | L/H ratio of acetylated peptide ALK(ac)DLYCHK (SEQ ID NO: 28) (CREM [240], log 2 scale, drug vs DMSO): 0.43 | L/H ratio of acetylated peptide LYCPK(ac)CMDVYTPK (SEQ ID NO: 29) (CSNK2B [139], log 2 scale, drug vs DMSO): −0.39 | light to heavy ratio (L/H ratio) of acetylated peptide FVLSSGK(ac)FYGDEEKDK (SEQ ID NO: 281) (Calreticulin [55], CALR, drug:DMSO): −0.51 log 2 | light to heavy ratio (L/H ratio) of acetylated peptide VHVIFNYK(ac)GK (SEQ ID NO: 273) (Calreticulin [151], CALR, drug:DMSO): −0.58 log 2 | light to heavy ratio (L/H ratio) of acetylated peptide NVLINK(ac)DIR (SEQ ID NO: 257) (Calreticulin [159], CALR, drug:DMSO): −0.88 log 2 | light to heavy ratio (L/H ratio) of acetylated peptide TCDLVGEK(ac)GK (SEQ ID NO: 289) (Cation-dependent mannose-6-phosphate receptor [38], M6PR, drug:DMSO): −0.81 log 2 | light to heavy ratio (L/H ratio) of acetylated peptide EFALK(ac)HLPNDPMFK (SEQ ID NO: 583) (Citrate synthase mitochondrial [366], gene CS, inhibitor:DMSO): 0.00 log 2 | light to heavy ratio (L/H ratio), log 2 scale, acetylated peptide MIYASSK(ac)DAIKK (SEQ ID NO: 763) (Cofilin-1 [121], gene CFL1, drug:DMSO): 0.00 | light to heavy ratio (L/H ratio) of acetylated peptide AAEEVEAK(ac)FK (SEQ ID NO: 328) (Coiled-coil-helix-coiled-coil-helix domain-containing protein 3 mitochondrial [173], CHCHD3, drug:DMSO): 0.00 log 2 | light to heavy ratio (L/H ratio) of acetylated peptide ASEIGEK(ac)YR (SEQ ID NO: 586) (Conserved hypothetical protein [484], gene KIAA0947, inhibitor:DMSO): 0.00 log 2 | light to heavy ratio (L/H ratio) of acetylated peptide DHCVAHK(ac)LFNNLK (SEQ ID NO: 608) (Cytochrome b-c1 complex subunit 6 mitochondrial [85], gene UQCRH, inhibitor:DMSO): 0.00 log 2
